Assay results: PMC13014258 (JACS Au, 2026)

System: CTSB
Experiment: CTSB inhibitor study, CTSB channel fluorescence of the probes in cells
Format: cell-based
Conditions: HeLa cells, CA-074 500 nM 15 min, n = 30

`CCCNC(=O)[C@H]1O[C@@H]1C(=O)N[C@H](C(=O)N1CCC[C@H]1C(=O)O)[C@@H](C)CC` [CTSB inhibitor] was tested, and the “CTSB (blue) channel intensities of MSS2 and MSS3 in inhibitor-treated cells at resting state” value (then MSS2/MSS3 10 μM 5 min) was “significantly reduced” and the “CTSB (blue) channel intensities of MSS4 and MSS5 in inhibitor-treated cells at resting state” value (then MSS4/MSS5 10 μM 5 min) was “significantly reduced”.
